Data taken from patent publication US11178874B2, “Articles comprising antioxidizing agents and bacteriostatic agents, and production processes thereof” (BENVIC SAS, priority 2016, dated 2021).

Tested on: microorganisms usually present in the environment
Test: Counting of microorganisms on a growth plate after incubation (bacteriostatic effect of solutions)
Format: cell-based
Conditions: for cfu/plate: control 597 cfu; for Reduction % observed: vs control 597 cfu
Procedure: The counting of microorganisms was carried out on a growth plate, after the incubation period (as regards the type of microorganisms, they are microorganisms usually present in the environment). […] Then, the bacteriostatic effect was evaluated of:
a solution of selenium phloroglucinol (20 ppm of selenium, i.e. corresponding to 0.002% by weight);
three solutions of zinc PCA, with a concentration of zinc of 10 ppm, 20 ppm and 30 ppm respectively (i.e. respectively corresponding to 0.001%, 0.002% and 0.003% by weight).
In order to evaluate the synergic effect between zinc and antioxidizing agent, the tests indicated above were repeated, using three solutions separately, respectively containing: selenium 20 ppm+zinc 10 ppm; selenium 20 ppm+zinc 20 ppm; selenium 20 ppm+zinc 30 ppm.

In the case of `O=C1CC[C@@H](C(=O)[O-])N1.O=C1CC[C@@H](C(=O)[O-])N1.[Zn+2]` [Zinc], the cfu/plate (solution 10 ppm) is reported as 571 cfu/plate, the Reduction % observed (solution 10 ppm) is reported as 5.1% and the cfu/plate (solution 20 ppm) is reported as 550 cfu/plate. The Reduction % observed (solution 20 ppm) was 6.0%, the cfu/plate (solution 30 ppm) was 491 cfu/plate and the Reduction % observed (solution 30 ppm) was 17.1%.
